Assay results as given in patent US20220259235A1, “EGFR Inhibitor, Composition, and Preparation Method Therefor” (BETTA PHARMACEUTICALS CO., LTD, priority 2019, published 2022).

Tests used:
[1] = Liver microsomal clearance test, monkey; type: in vitro ADME; details: Monkey liver microsomes, 0.5 mg/mL, NADPH
Experimental: (§1) Test 3 Liver Microsomal Clearance Test
(§2) 1. Prepare 0.5 mg/mL liver microsome diluent containing K-butter and MgCl2:
(§3) 2.1 Take 356 μL of the liver microsome diluent prepared above and add it to the preset wells of the incubation plate, the number of multiple wells n=1, mark it as the incubation plate.
(§4) 2.2 Take 4 μL of the positive control compound Verapamil (50 μM) and the working solution of the test compound (200 μM) into the above incubation plate containing 356 μL of liver microsome diluent, and mix well (The dilution solvent from the stock solution to the working solution is a mixed solvent of acetonitrile: methanol: water=1:1:2, and the final concentration of DMSO is ≤0.5%),
(§5) 2.3 Place the incubation plate in a 37° C. thermostatic oscillator (at shaking speed of 100 rpm) for pre-incubation with 10 min.
(§6) 2.4 Add 40 μL of 10 mM NADPH (add 40 μL of K-buffer to the wells without NADPH) to each reaction well to start the reaction and start timing.
(§7) 3. Sample collection and treatment:
(§8) 3.1 After adding NADPH to start the reaction, immediately take out 50 μL of the sample and add it to the precipitation plate pre-added with 400 μL of stop solution, and shake on an oscillator at 600 rpm for 5 min at room temperature as a 0 min sample.
(§9) 3.2 At the predetermined time points of 5 min, 15 min and 45 min, take out 50 μL of sample from the incubation plate and add it to the precipitation plate. The subsequent steps were the same as the treatment of 0 min sample. 3.3 After balancing, centrifuge above precipitation plate at 3200 rpm for 10 min at 4° C.
(§10) 3.4 Take 50 μL of the supernatant after centrifugation and add it to pre-added 20% acetonitrile water at appropriate proportion, shake on an oscillator at 600 rpm for 2 min at room temperature, mix well, and put it into the LC-MS/MS sampler for sample injection.
(§11) Analysis of Experimental Data
1. […]

[2] = Liver microsomal clearance test, dog; type: in vitro ADME; details: Dog liver microsomes, 0.5 mg/mL, NADPH
Experimental: as §1, §2, §3, §4, §5, §6, §7, §8, §9, §10, §11
1. […]

EGFR Δ19del/T790M/C797S = EGFR Δ19del/T790M/C797S (Homo sapiens, UniProt P00533, T790M/C797S, form not given); assay: EGFR Δ19del/T790M/C797S kinase test (mobility shift, Caliper EZ Reader); type: biochemical; details: kinase enzymatic activity
Sequence of EGFR Δ19del/T790M/C797S (P00533 with tags, fused parts or gaps DEL746-750/T790M/C797S, form open): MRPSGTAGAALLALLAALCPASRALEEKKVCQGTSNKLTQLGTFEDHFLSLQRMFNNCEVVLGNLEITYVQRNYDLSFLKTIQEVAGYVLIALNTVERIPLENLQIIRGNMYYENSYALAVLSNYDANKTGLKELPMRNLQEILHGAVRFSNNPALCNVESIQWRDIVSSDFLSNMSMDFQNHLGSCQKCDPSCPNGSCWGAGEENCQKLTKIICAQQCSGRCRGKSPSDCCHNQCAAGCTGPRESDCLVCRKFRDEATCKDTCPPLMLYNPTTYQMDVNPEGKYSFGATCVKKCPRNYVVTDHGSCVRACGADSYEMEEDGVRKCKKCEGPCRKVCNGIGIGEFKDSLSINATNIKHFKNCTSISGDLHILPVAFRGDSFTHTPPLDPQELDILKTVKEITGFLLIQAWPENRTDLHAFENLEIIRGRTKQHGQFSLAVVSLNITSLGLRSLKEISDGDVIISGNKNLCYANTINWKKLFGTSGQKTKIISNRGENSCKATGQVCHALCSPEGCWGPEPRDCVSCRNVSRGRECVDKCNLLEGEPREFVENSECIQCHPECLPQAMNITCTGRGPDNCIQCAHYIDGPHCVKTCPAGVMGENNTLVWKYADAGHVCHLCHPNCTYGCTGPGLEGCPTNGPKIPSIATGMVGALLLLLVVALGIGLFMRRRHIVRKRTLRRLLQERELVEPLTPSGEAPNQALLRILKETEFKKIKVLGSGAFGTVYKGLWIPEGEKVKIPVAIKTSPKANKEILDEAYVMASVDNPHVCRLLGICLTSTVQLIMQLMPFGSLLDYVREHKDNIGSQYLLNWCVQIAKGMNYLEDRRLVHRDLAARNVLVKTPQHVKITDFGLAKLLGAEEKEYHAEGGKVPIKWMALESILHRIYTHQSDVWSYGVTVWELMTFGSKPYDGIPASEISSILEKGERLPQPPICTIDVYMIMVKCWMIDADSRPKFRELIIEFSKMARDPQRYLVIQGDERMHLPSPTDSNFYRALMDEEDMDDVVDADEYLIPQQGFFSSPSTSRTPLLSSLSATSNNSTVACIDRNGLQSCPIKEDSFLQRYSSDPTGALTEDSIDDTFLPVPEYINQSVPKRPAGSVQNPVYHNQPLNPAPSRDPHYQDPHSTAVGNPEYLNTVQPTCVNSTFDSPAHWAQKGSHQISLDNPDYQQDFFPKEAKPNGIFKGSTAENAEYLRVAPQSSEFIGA
Experimental: Mobility variation analysis was performed to determine the affinity of the compound for EGFRΔ19del/T790M/C797S. The enzymatic reaction scheme is as follows:
1. Prepare 1* kinase buffer as follows:
2. Preparation of compound concentration gradient: The test compound was tested with an initial concentration of 3000 nM or 100 nM, diluted in a 384 source plate to a 100% DMSO solution with 100-fold final concentration, and the compound is 3-fold diluted with Precision to 10 concentrations. A dispenser Echo 550 was used to transfer 250 nL 100-fold final concentration of the compound to the target plate OptiPlate-384F.
3. Prepare 2.5-fold final concentration of kinase solution with 1×Kinase buffer;
4. Add 10 μL of 2.5-fold final concentration of kinase solution to the compound well and the positive control well; add 10 μL of 1×Kinase buffer to the negative control well.
5. Centrifuge at 1000 rpm for 30 seconds, shake the reaction plate for well mixation, and then incubate at room temperature for 10 minutes.
6. Prepare a mixture of ATP and Kinase substrate at 5/3-fold final concentration with 1×Kinase buffer.
7. Add 15 μL mixture of 5/3-fold final concentration of ATP and substrate to start reaction.
8. Centrifuge the 384-well plate at 1000 rpm for 30 seconds, shake it well and then incubate it at room temperature for corresponding time.
9. Add 30 μL of stop detection solution to stop the kinase reaction, centrifuge at 1000 rpm for 30 seconds, shake it well.
10. Read conversion rate with Caliper EZ Reader.
% Inhibition=((Conversion%_max−Conversion%_sample)/(Conversion%_max−Conversion%_min))*100
Wherein: Conversion%_sample is the sample conversion rate reading; Conversion%_min: Mean value of negative control wells, representing the conversion rate reading of wells without enzymatic activity; Conversion%_max: Mean value of positive control wells, representing the conversion rate reading of wells without compound inhibition.
The dose-effect curve was fitted with concentration log value as X-axis and percentage inhibition rate as Y-axis. Log (inhibitor) vs. Response—Variable Slope of GraphPad Prism 5 was used to fit the dose-effect curve to obtain IC50 value of enzymatic activity for each compound.
The calculation formula is as Y=Bottom (Top−Bottom)/(1+10^((LogIC50−X)*HillSlope)).
As illustrated in examples, IC50 value is within the following range for the compound of the present invention: “A” represents “IC50≤1nM”; “B” represents “1 nM<IC50≤100nM”.

Ba/F3-Δ19del/T790M/C797S = Ba/F3-Δ19del/T790M/C797S (Homo sapiens, UniProt P00533, T790M/C797S, cells depend on it, form not given); assay: Ba/F3-Δ19del/T790M/C797S cell proliferation assay (CellTiter Glo, 72 h); type: cell-based; details: CTG, numeric values, read-out: BaF3 Δ19del/T790M/C797S IC50
Sequence of Ba/F3-Δ19del/T790M/C797S (P00533 with tags, fused parts or gaps DEL746-750/T790M/C797S, form open): as above
Experimental: (§12) Cell line: Ba/F3 cells with stable overexpression of Δ19del/T790M/C797S or L858R/T790M/C797S mutant genes, named Ba/F3-Δ19del/T790M/C797S and Ba/F3-L858R/T790M/C797S, and A431 EGFR wild-type cell line.
(§13) RPMI 1640 and 10% FBS and 1% PS; _EM, 10% PBS and 1% PS
(§14) a) Dilute the test compound (20 mM stock solution) to 10 mM with 100% DMSO as the starting concentration, and then serially dilute 3 times with a “9+0” concentration in 96-well dilution plate (Cat #P-05525, Labcyte);
(§15) b) Dilute compound solution thereof to 1:100 in medium to prepare 10-fold working solution;
(§16) a) Centrifuge the growth cells in logarithmic phase at 1000 rpm for 5 minutes, resuspend the cells in culture medium, and then count the cells;
(§17) b) Inoculate the cells into a 96-well cell culture plate with a density of 2000 cells/well;
(§18) a) The compound prepared in Step 2 was added to a cell plate with 15 μL per well at final concentrations of 1000, 333, 111.1, 37, 12.3, 4.1, 1.4, 0.5, 0.2, and 0 nM. The final concentration of DMSO was 0.1%. The blank control well is with medium (0.1% DMSO).
(§19) b) Incubate cells in an incubatorother 72 hours;
(§20) a) Take out the 96-well cell culture plate and add 50 μl CTG reagent (CellTiter Glo kit, promega, Cat #G7573);
(§21) b) Shake the plate for 2 minutes and let cool at room temperature for 10 minutes,
(§22) c) Read luminous signal value with Perkin Elmer reader.
as §11
(§23) The data were analyzed by GraphPad Prism 6.0 software to obtain the fitting curve of compound activity.
(§24) Fining compound IC50 from nonlinear regression equation:
(§25) Y=Min+(Max−Min)/(1+10^((LogIC50−X)*slope));
(§26) X: Logarithm of compound concentration; Y: luminous signal
(§27) As illustrated in examples, IC50 value is within the following range for the compound of the present invention: “A” represents “IC50≤50 nM”; “B” represents “50 nM<IC50<100 nM”.

[3] = system: A431 EGFR wild-type cell line; assay: A431 EGFR wild-type cell proliferation assay (CellTiter Glo, 72 h); type: cell-based; details: Homo sapiens, A-431, CTG, read-out: A431 EGFR WT IC50
Experimental: as §12, §13, §14, §15, §16, §17, §18, §19, §20, §21, §22, §11, §23, §24, §25, §26, §27

[4] = Liver microsomal clearance test, mice; type: in vitro ADME; details: Mice liver microsomes, 0.5 mg/mL, NADPH
Experimental: as §1, §2, §3, §4, §5, §6, §7, §8, §9, §10, §11
1. […]

[5] = Liver microsomal clearance test, human; type: in vitro ADME; details: Human liver microsomes, 0.5 mg/mL, NADPH
Experimental: as §1, §2, §3, §4, §5, §6, §7, §8, §9, §10, §11
1. […]

[6] = Liver microsomal clearance test, rat; type: in vitro ADME; details: Rat liver microsomes, 0.5 mg/mL, NADPH
Experimental: as §1, §2, §3, §4, §5, §6, §7, §8, §9, §10, §11
1. […]

Ba/F3-L858R/T790M/C797S = Ba/F3-L858R/T790M/C797S (Homo sapiens, UniProt P00533, T790M/C797S/L858R, cells depend on it); assay: Ba/F3-L858R/T790M/C797S cell proliferation assay (CellTiter Glo, 72 h); type: cell-based; details: CTG, numeric values, read-out: BaF3 L858R/T790M/C797S IC50
Sequence of Ba/F3-L858R/T790M/C797S (P00533 whole entry T790M/C797S/L858R): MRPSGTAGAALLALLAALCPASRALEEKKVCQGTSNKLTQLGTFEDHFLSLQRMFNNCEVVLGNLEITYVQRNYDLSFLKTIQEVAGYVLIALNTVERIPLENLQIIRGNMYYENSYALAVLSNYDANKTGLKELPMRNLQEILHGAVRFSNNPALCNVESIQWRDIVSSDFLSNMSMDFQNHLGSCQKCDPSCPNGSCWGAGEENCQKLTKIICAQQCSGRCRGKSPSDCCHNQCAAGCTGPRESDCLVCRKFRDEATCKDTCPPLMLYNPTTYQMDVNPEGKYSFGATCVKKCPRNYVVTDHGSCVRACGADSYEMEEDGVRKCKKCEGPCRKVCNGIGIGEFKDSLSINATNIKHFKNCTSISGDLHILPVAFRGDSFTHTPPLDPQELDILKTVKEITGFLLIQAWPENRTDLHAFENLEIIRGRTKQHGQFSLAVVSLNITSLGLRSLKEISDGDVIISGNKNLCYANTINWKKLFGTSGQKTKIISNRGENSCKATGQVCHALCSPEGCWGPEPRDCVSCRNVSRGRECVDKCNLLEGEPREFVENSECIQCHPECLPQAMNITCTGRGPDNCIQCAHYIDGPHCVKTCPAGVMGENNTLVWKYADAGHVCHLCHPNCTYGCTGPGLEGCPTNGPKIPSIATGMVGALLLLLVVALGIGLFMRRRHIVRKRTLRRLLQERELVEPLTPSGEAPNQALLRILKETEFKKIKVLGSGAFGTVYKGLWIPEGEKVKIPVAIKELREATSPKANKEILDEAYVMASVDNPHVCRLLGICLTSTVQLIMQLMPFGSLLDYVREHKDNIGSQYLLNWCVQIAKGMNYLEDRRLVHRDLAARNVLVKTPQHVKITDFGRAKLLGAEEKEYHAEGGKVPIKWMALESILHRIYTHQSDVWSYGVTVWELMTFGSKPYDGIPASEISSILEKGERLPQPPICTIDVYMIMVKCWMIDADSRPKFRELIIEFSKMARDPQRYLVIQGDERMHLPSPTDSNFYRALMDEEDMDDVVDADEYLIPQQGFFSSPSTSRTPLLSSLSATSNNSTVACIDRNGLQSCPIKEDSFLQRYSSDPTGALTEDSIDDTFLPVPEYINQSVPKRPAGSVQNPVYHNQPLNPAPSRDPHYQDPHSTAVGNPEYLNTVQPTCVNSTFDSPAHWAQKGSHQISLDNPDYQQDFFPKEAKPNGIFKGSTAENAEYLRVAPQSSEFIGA
Experimental: as §12, §13, §14, §15, §16, §17, §18, §19, §20, §21, §22, §11, §23, §24, §25, §26, §27

| Instrinsic clearance of liver microsomal protein, CLint [1] | Instrinsic clearance of liver microsomal protein, CLint [2] | IC50 (EGFR Δ19del/T790M/C797S; class symbols) | GI50 (Ba/F3-Δ19del/T790M/C797S) | IC50 [3] | Instrinsic clearance of liver microsomal protein, CLint [4] | Instrinsic clearance of liver microsomal protein, CLint [5] | Instrinsic clearance of liver microsomal protein, CLint [6] | GI50 (Ba/F3-L858R/T790M/C797S) | IC50 (EGFR Δ19del/T790M/C797S; numeric values) | SMILES |
| --- | --- | --- | --- | --- | --- | --- | --- | --- | --- | --- |
| 43.2 μL/min/mg proteins | 25.8 μL/min/mg proteins | ≤ 1 nM | 3 nM | 114 nM | 11.2 μL/min/mg proteins | 15.4 μL/min/mg proteins | 0.8 μL/min/mg proteins | 6.5 nM |  | COc1cc(N2CCC(N3CCCCC3)CC2)c(-c2cnn(C)c2)cc1Nc1ncc(Cl)c(Nc2ccc3nccnc3c2P(C)(C)=O)n1 [Compound 5, (6-((2-((4-([1,4′-Dipiperidine]-1′-yl)-2-methoxy-5-(1-methyl-1H-pyrazole-4-yl)phenyl)amino)-5-chloropyrimidin-4-yl)amino)quinoxalin-5-yl)dimethylphosphine oxide] |
|  |  |  | 2.5 nM | 107 nM |  |  |  | 4 nM | 0.3 nM | COc1cc(N2CCN(C3CCCC3)CC2)c(-c2cnn(C)c2)cc1Nc1ncc(Br)c(Nc2ccc3nccnc3c2P(C)(C)=O)n1 [Compound 25, (6-((5-Bromo-2-((4-(4-cyclopentylpiperazine-1yl)-2-methoxy-5-(1-methyl-1H-pyrozole-4-yl)phenyl)amino)pyrimidin-4-yl)amino)quinoxalin-5-yl) dimethylphosphine oxide] |
|  |  |  | 4.6 nM | 241 nM |  |  |  | 2.8 nM | 0.2 nM | COc1cc(N2CCN(C3CCCC3)CC2)c(-c2cnn(C)c2)cc1Nc1ncc(Br)c(Nc2ccc(C)c(C)c2P(C)(C)=O)n1 [Compound 26, (6-((5-Bromo-2-((4-(4-cyclopentylpiperazine-1-yl)-2-methoxy-5-(1-methyl-1H-pyrazole-4-yl)phenyl)amino)pyrimidin-4-yl)amino)-2,3-dimethylphenyl)dimethylphoshine oxide] |
|  |  |  | 6.7 nM | 112 nM |  |  |  | 8.2 nM | 0.2 nM | COc1cc(N2CCN3CCCCC3C2)c(-c2cnn(C)c2)cc1Nc1ncc(Cl)c(Nc2ccc3nccnc3c2P(C)(C)=O)n1 (stereo in doubt) [Compound 18] |
|  |  |  | 24.6 nM | 3260 nM |  |  |  | 31.1 nM | 4.2 nM | CCn1cc(-c2cc(Nc3ncc(Br)c(Nc4ccc(C)c(C)c4P(C)(C)=O)n3)c(OC)cc2N2CCC(N3CCN(C)CC3)CC2)cn1 [Compound 22, (6-((5-Bromo-2-((5-(1-ethyl-1h-pyrazol-4-yl)-2methoxy-4-(4-(4-methylpiperazine-1-yl)piperidin-1-yl)phenyl)amino)pyrimidine-4-yl)amino)-2,3-dimethylphenyl)dimethylphosphine oxide] |
|  |  |  | 3.5 nM | 120 nM |  |  |  | 3.8 nM | 0.3 nM | COc1cc(N2CCC(N3CCN(C)CC3)CC2)c(-c2cnn(C(F)F)c2)cc1Nc1ncc(Br)c(Nc2ccc3nccnc3c2P(C)(C)=O)n1 [Compound 17] |
|  |  |  | 6.5 nM | 110 nM |  |  |  | 18.3 nM | 0.2 nM | COc1cc(N2CCC(N(C)C)CC2)c(-c2cnn(C)c2)cc1Nc1ncc(Cl)c(Nc2ccc3nccnc3c2P(C)(C)=O)n1 [Compound 2] |
|  |  |  | 1 nM | 135 nM |  |  |  | 1.3 nM | 0.3 nM | CCn1cc(-c2cc(Nc3ncc(Br)c(Nc4ccc5nccnc5c4P(C)(C)=O)n3)c(OC)cc2N2CCC(N3CCN(C)CC3)CC2)cn1 [Compound 19] |
